{"source": "patent US12698342B2", "about": "“Therapy for drug-resistant cancer by administration of anti-HER2 antibody/drug conjugate” (DAIICHI SANKYO COMPANY, LIMITED, priority 2016, dated 2026)", "key": {"topoisomerase I": {"target": "T1, topoisomerase I (Homo sapiens, UniProt P11387)", "T1 sequence (P11387 1-765)": "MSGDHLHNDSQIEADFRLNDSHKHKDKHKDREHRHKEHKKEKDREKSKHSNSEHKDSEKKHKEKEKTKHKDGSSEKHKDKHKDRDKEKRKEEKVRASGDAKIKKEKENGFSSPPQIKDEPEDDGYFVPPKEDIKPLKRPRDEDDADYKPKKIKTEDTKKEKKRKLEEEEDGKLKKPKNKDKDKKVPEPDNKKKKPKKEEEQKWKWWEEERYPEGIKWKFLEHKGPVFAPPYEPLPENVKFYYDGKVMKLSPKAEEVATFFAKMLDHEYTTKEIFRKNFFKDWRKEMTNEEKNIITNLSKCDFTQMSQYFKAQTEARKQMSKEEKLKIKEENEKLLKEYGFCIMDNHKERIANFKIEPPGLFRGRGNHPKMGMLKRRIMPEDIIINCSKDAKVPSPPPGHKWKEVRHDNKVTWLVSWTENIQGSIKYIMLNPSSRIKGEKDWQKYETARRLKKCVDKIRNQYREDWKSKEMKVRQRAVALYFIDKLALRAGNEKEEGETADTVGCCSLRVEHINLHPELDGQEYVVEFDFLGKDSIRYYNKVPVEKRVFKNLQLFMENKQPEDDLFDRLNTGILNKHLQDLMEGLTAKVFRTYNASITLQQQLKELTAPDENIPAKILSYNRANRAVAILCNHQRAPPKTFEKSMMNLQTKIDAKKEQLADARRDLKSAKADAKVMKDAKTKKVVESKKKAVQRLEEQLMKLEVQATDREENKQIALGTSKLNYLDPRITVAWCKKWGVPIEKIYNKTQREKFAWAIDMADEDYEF", "details": "cited from earlier work"}, "[1]": {"tested_on": "Breast cancer or gastric adenocarcinoma/esophagogastric junction adenocarcinoma", "details": "human, in vivo", "from_the_text": "Open-label, Phase 1 dose escalation study.\nPart 1 study: Dose escalation study (conducted in Japan)\nBreast cancer or gastric adenocarcinoma/esophagogastric junction adenocarcinoma\nObjective response rate (ORR; complete response (CR)+partial response (PR)).\nDisease control rate (DCR; CR+PR+stable disease (SD))."}, "[2]": {"tested_on": "HER2-positive human breast cancer ST1616B/TDR", "details": "mouse, in vivo", "experimental": "(§1) Mouse: 6- to 12-week-old female immunodeficient Crl:Nu(Ncr)-Foxn1^Nu mice (Charles River Laboratories Japan, Inc.) were subjected to the experiment.\n(§2) Assay and calculation expression: The major axis and minor axis of tumor were measured twice a week by using an electronic digital caliper, and the tumor volume (mm^3) was calculated. The calculation expression is as shown below. Tumor volume (mm^3)=0.52×Major axis (mm)×[Minor axis ([…])]^2\n(§3) Tumor excised from a patient with HER2-positive breast cancer that acquired resistance after treatment with T-DM1 was maintained at several passages by transplantation to female immunodeficient mice. […] ST1616B/TDR is tumor derived from a patient who received T-DM1 by continuous administration for 13 months, and ST1360B/TDR is a tumor derived from a patient who received T-DM1 by continuous administration for 3 months.\n(§4) A tumor section of the solid tumor was subcutaneously transplanted to the side of the body of each female immunodeficient mouse, and the mice were randomly grouped when the tumor volume reached about 200 mm^3."}, "[3]": {"tested_on": "HER2-positive human breast cancer ST1360B/TDR", "details": "mouse, in vivo", "experimental": "as §1, §2, §3, §4"}}, "data": [{"compound": "CC[C@@]1(O)C(=O)OCc2c1cc1n(c2=O)Cc2c-1nc1cc(F)c(C)c3c1c2[C@@H](NC(=O)CO)CC3", "note": "[Compound 1]", "values": [{"measurement": "topoisomerase I inhibitory effect", "setting": "topoisomerase I; Ogitani Y. et al., Clinical Cancer Research, 2016", "value": "confirmed to have a topoisomerase I inhibitory effect"}]}, {"compound": "CC[C@@]1(O)C(=O)OCc2c1cc1n(c2=O)Cc2c-1nc1cc(F)c(C)c3c1c2[C@@H](N)CC3", "note": "[exatecan, (1S,9S)-1-amino-9-ethyl-5-fluoro-1,2,3,9,12,15-hexahydro-9-hydroxy-4-methyl-10H,13H-benzo[de]pyrano[3′,4′:6,7]indolizino[1,2-b]quinolin-10,13-dione]", "values": [{"measurement": "inhibitory activity on topoisomerase I", "setting": "topoisomerase I; compared with SN-38 and topotecan", "value": "higher than SN-38"}]}, {"compound": "T-DM1", "values": [{"measurement": "DCR", "setting": "[1]", "value": 64, "unit": "%"}, {"measurement": "ORR", "setting": "[1]", "value": 18, "unit": "%"}, {"measurement": "growth of the tumor (tumor volume)", "setting": "[2]", "value": "did not inhibit the growth"}, {"measurement": "growth of the tumor (tumor volume)", "setting": "[3]", "value": "did not inhibit the growth"}]}]}
